This note sets out measurements from PMC9011347, “Small-Molecule Inhibitors Targeting Lipolysis in Human Adipocytes” (Journal of the American Chemical Society, 2022).

In general, IC50 refers to the midpoint of a concentration-inhibition curve. A lower IC50 goes with inhibition by little substance.

The test addresses T1, mouse ATGL I69F/T146G double mutant (Mus musculus, UniProt Q8BJ56, I69F/T146G).
T1 construct: host or cells: Expi293 cells, cell lysate
Kind of test: TAG hydrolase assay, humanized mouse ATGL variants. The settings on record: I69F/T146G double mutant of mouse ATGL. In kind it is biochemical. From the text: The region between aa 60 and 146 of human and mouse ATGL comprises 12 nonidentical aa. We generated 3D homology models for the minimal active domain of mouse ATGL to obtain more detailed insight into the topology of the relevant region (Figure 5d). Based on this model, aa T101, C106, R109, N111, and S133 locate at peripheral (loop) regions (indicated in orange, Figure 5d). […] For all other nonidentical aa (indicated in magenta, Figure 5d), we generated variants with single aa substitutions. The humanized variants A60V, N68K, T93I, and C97F were inactivated by Ai but not NG-497 (Figure 5a).
Figure 6 Identification of the molecular scaffold determining species selectivity. (a) Schematic view of mouse ATGL variants, which are sensitive to NG-497 inhibition. Humanized aa are indicated in red and nonidentical aa are indicated in dark blue. (b) Dose-dependent inhibition of the I69F/T146G double mutant, the I69F/T93I/C97F/T146G quadruple mutant, and human ATGL. (c) Dose-dependent inhibition of triple mutants I69F/T93I/T146G and I69F/C97F/T146G, and human ATGL. IC50 values are shown in the insets. […]
Expression of recombinant ATGL constructs and preparation of cell lysates. […] Protein concentrations were determined using Bio-Rad protein assay (Bio-Rad 785, Bio-Rad Laboratories, Munich, Germany) using BSA as standard. […]

T1 sequence (Q8BJ56 whole entry I69F/T146G): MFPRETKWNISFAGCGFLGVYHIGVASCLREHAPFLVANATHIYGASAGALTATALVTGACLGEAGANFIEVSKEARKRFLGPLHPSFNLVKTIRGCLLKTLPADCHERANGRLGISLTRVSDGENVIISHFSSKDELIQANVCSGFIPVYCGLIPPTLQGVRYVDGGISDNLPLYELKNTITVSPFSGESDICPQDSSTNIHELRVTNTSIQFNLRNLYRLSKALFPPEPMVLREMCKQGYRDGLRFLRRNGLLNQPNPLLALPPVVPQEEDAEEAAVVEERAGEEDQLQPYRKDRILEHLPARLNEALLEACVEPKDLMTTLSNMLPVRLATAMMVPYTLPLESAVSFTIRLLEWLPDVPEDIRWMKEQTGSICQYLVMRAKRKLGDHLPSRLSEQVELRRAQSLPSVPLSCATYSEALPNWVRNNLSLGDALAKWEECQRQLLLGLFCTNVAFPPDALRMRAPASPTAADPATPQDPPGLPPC

Regarding `CCOc1ccc(-c2cc(OC)cc(C(=O)OC(C)C)n2)cc1` [NG-497], inhibition was half-maximal at 9 µM (IC50).
